{"source": "patent US20210255193A1", "about": "“LYSINE REACTIVE PROBES AND USES THEREOF” (The Scripps Research Institute, priority 2017, published 2021)", "data": [{"biological_target": "T1, RTN4 Reticulon-4 (Homo sapiens, UniProt Q9NQC3)", "T1 construct": "endogenous in cells; host or cells: MDA-MB-231 lysate", "T1 sequence (Q9NQC3 1-1192)": "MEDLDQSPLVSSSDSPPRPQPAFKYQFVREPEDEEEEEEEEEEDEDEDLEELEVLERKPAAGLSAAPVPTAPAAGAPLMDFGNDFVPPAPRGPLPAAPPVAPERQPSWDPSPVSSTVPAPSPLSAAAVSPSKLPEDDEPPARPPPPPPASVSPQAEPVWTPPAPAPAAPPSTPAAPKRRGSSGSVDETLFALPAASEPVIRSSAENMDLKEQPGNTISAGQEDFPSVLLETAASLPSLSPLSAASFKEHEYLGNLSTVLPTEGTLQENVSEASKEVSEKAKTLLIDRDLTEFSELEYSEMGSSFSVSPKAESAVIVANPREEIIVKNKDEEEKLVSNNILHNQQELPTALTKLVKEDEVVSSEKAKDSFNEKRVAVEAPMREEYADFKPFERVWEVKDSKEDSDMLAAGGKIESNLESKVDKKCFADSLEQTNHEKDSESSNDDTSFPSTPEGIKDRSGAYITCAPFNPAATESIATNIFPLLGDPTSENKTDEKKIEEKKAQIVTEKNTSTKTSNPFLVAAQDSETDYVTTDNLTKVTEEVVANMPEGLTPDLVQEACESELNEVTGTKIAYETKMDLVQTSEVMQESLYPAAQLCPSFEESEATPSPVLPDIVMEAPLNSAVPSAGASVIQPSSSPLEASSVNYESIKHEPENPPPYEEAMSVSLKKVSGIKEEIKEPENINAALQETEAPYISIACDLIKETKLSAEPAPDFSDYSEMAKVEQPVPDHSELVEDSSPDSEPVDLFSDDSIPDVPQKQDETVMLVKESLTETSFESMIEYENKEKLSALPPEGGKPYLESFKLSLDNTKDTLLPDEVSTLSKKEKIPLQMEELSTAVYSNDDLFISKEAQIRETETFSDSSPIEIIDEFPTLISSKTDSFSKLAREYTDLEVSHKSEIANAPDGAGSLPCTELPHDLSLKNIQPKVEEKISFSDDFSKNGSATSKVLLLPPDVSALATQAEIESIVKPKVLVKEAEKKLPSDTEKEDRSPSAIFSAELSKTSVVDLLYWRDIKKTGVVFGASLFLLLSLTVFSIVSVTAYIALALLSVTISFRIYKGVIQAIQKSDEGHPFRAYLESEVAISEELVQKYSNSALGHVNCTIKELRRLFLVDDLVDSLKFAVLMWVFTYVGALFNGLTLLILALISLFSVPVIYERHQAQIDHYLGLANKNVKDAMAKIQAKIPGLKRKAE", "test": "competitive isoTOP-ABPP", "type": "binding", "settings": "50 uM, 231 sol, in vitro", "outline": "(§1)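 Probe: STP-alkyne, 0.1 mM, 1 h RT, after fragment pretreatment of lysate (esters 50 μM; guanidinylators 100 μM). Tags: light = compound, heavy = DMSO, via CuAAC. Replicates averaged if SD <60% of mean; otherwise lowest ratio used when any R <4.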", "values": [{"smiles": "O=C(Oc1c(F)c(F)c(F)c(F)c1F)C1CCN(C(=O)OCc2ccccc2)CC1", "note": "[fragment 24, 1-Benzyl 4-(pentafluorophenyl) piperidine-1,4-dicarboxylate]", "isoTOP-ABPP reactivity ratio at lysine Q9NQC3_K1104": 2.3}, {"smiles": "O=C(CCc1coc2cc(F)ccc2c1=O)Oc1c(F)c(F)c(F)c(F)c1F", "note": "[fragment 26, Pentafluorophenyl 3-(7-fluoro-4-oxo-4H-chromen-3-yl)propanoate]", "isoTOP-ABPP reactivity ratio at lysine Q9NQC3_K1104": 5.3}, {"smiles": "CCn1cc(C(=O)Oc2c(F)c(F)c(F)c(F)c2F)c(=O)c2ccc(C)nc21", "note": "[fragment 28, Pentafluorophenyl 1-ethyl-7-methyl-4-oxo-1,4-dihydro-1,8-naphthyridine-3-carboxylate]", "isoTOP-ABPP reactivity ratio at lysine Q9NQC3_K1104": 1.0}, {"smiles": "O=C(CCc1cn(-c2ccccc2)nc1-c1ccccc1)Oc1ccc([N+](=O)[O-])cc1[N+](=O)[O-]", "note": "[fragment 29, 2,4-Dinitrophenyl 3-(1,3-diphenyl-1H-pyrazol-4-yl)propanoate]", "isoTOP-ABPP reactivity ratio at lysine Q9NQC3_K1104": 15.6}, {"smiles": "O=C(Oc1ccc([N+](=O)[O-])cc1[N+](=O)[O-])c1cc(C(F)(F)F)cc(C(F)(F)F)c1", "note": "[fragment 31, 2,4-Dinitrophenyl 3,5-bis(trifluoromethyl)benzoate]", "isoTOP-ABPP reactivity ratio at lysine Q9NQC3_K1104": 6.1}, {"smiles": "Cn1cc(CC(=O)Oc2ccc([N+](=O)[O-])cc2[N+](=O)[O-])c2ccccc21", "note": "[fragment 32, 2,4-Dinitrophenyl 2-(1-methyl-1H-indol-3-yl)acetate]", "isoTOP-ABPP reactivity ratio at lysine Q9NQC3_K1104": 20.0}, {"smiles": "COc1cc(CCC(=O)Oc2ccc([N+](=O)[O-])cc2[N+](=O)[O-])cc(OC)c1OC", "note": "[fragment 33, 2,4-Dinitrophenyl 3-(3,4,5-trimethoxyphenyl)propanoate]", "isoTOP-ABPP reactivity ratio at lysine Q9NQC3_K1104": 4.3}]}, {"biological_target": "T1, RTN4 Reticulon-4", "test": "competitive isoTOP-ABPP", "type": "binding", "settings": "50 uM, in vitro, sol, 231", "outline": "as §1", "values": [{"smiles": "O=C(Oc1ccc([N+](=O)[O-])cc1[N+](=O)[O-])c1ccc2ccccc2n1", "note": "[fragment 35, 2,4-Dinitrophenyl quinoline-2-carboxylate]", "isoTOP-ABPP ratio (R) at liganded lysine Q9NQC3_K1104": 6.0}, {"smiles": "O=C(Oc1ccc([N+](=O)[O-])cc1[N+](=O)[O-])c1ccc(-c2ccccc2)cc1", "note": "[fragment 37, 2,4-Dinitrophenyl [1,1′-biphenyl]-4-carboxylate]", "isoTOP-ABPP ratio (R) at liganded lysine Q9NQC3_K1104": 3.4}, {"smiles": "O=C(Oc1ccc([N+](=O)[O-])cc1[N+](=O)[O-])c1ccccc1Nc1cccc(C(F)(F)F)c1", "note": "[fragment 40, 2,4-Dinitrophenyl 2-((3-(trifluoromethyl)phenyl)amino)benzoate]", "isoTOP-ABPP ratio (R) at liganded lysine Q9NQC3_K1104": 2.1}, {"smiles": "CC(C)(C)OC(=O)NCCCC(=O)Oc1ccc([N+](=O)[O-])cc1[N+](=O)[O-]", "note": "[fragment 41, 2,4-Dinitrophenyl 4-((tert-butoxycarbonyl)amino)butanoate]", "isoTOP-ABPP ratio (R) at liganded lysine Q9NQC3_K1104": 4.3}, {"smiles": "O=C(Oc1ccc([N+](=O)[O-])cc1[N+](=O)[O-])C(c1ccccc1)(c1ccccc1)c1ccccc1", "note": "[fragment 42, 2,4-Dinitrophenyl 2,2,2-triphenylacetate]", "isoTOP-ABPP ratio (R) at liganded lysine Q9NQC3_K1104": 1.2}, {"smiles": "CC(=O)Oc1ccc([N+](=O)[O-])cc1[N+](=O)[O-]", "note": "[fragment 43, 2,4-Dinitrophenyl acetate]", "isoTOP-ABPP ratio (R) at liganded lysine Q9NQC3_K1104": 1.4}]}, {"biological_target": "T1, RTN4 Reticulon-4", "test": "competitive isoTOP-ABPP", "type": "binding", "settings": "50 uM_231_sol_in vitro", "outline": "as §1", "values": [{"smiles": "N#Cc1ccc(C(=O)Oc2ccc([N+](=O)[O-])cc2[N+](=O)[O-])cc1", "note": "[fragment 44, 2,4-Dinitrophenyl 4-cyanobenzoate]", "isoTOP-ABPP ratio, lysine Q9NQC3_K1104": 2.6}, {"smiles": "O=C(ON1C(=O)CCC1=O)c1cc(C(F)(F)F)cc(C(F)(F)F)c1", "note": "[fragment 46, 3,5-Bis(trifluoromethyl)benzoic acid NHS ester]", "isoTOP-ABPP ratio, lysine Q9NQC3_K1104": 2.5}, {"smiles": "O=C(Oc1c(F)c(F)c(C(F)(F)F)c(F)c1F)c1cc(C(F)(F)F)cc(C(F)(F)F)c1", "note": "[fragment 47, 2,3,5,6-Tetrafluoro-4-(trifluoromethyl)phenyl 3,5-bis(trifluoromethyl)benzoate]", "isoTOP-ABPP ratio, lysine Q9NQC3_K1104": 3.8}, {"smiles": "NC(=O)c1cc(C(F)(F)F)cc(C(F)(F)F)c1", "note": "[fragment 51, reference compound]", "isoTOP-ABPP ratio, lysine Q9NQC3_K1104": 0.7}]}, {"biological_target": "T1, RTN4 Reticulon-4", "test": "competitive isoTOP-ABPP", "type": "binding", "settings": "100 uM_231_sol_in vitro", "outline": "as §1", "values": [{"smiles": "CC(C)(C)OC(=O)N=C(NC(=O)OC(C)(C)C)n1cccn1", "note": "[fragment 50, reference compound]", "isoTOP-ABPP ratio, lysine Q9NQC3_K1104": 1.4}]}, {"biological_target": "T1, RTN4 Reticulon-4", "test": "competitive isoTOP-ABPP", "type": "binding", "settings": "Q9NQC3_K1104; 50 uM, 231 sol, in vitro", "outline": "as §1", "values": [{"smiles": "O=C(Oc1c(F)c(F)c(F)c(F)c1F)C(c1ccccc1)c1ccccc1", "note": "[fragment 20, Pentafluorophenyl 2,2-diphenylacetate]", "R value (DMSO/fragment) for probe 1 labeling": 2.4}, {"smiles": "O=C(Oc1c(F)c(F)c(F)c(F)c1F)c1cc(C(F)(F)F)cc(C(F)(F)F)c1", "note": "[fragment 21, Pentafluorophenyl 3,5-bis(trifluoromethyl)benzoate]", "R value (DMSO/fragment) for probe 1 labeling": 2.5}, {"smiles": "COc1cc(CCC(=O)Oc2c(F)c(F)c(F)c(F)c2F)cc(OC)c1OC", "note": "[fragment 23, Pentafluorophenyl 3-(3,4,5-trimethoxyphenyl)propanoate]", "R value (DMSO/fragment) for probe 1 labeling": 3.3}]}]}
